Source: US9845457B2, “Maintenance of genomic stability in cultured stem cells” (Cedars-Sinai Medical Center, priority 2010, dated 2017)

Legend:
[1] = system: ATR, Rad50, Rad51, Chk1, Chk2; test: Western blotting of other DNA repair factors after 24 hours short-term exposure; format: cell-based, human; settings: 20% O2, high concentrations
Protocol: To examine the protein levels of ATM and other DNA repair-related factors, total protein was purified from twice-passaged CDCs cultured under the abovementioned four different conditions, using well-established laboratory techniques. Briefly, harvested cells were homogenized in a lysis buffer containing a protease inhibitor mixture (Roche Applied Science) on ice. After centrifugation at 15,000 rpm for 10 min, the supernatant was collected for experiments. The equivalent of 30 μg of total protein was loaded onto 5% or 10% SDS-PAGE gels, and then transferred to PVDF membranes. […] Quantitation for blots was done by Quantity One software, and expressions were normalized by β-actin.
Twice-passaged cells were seeded in 6-well plates coated with 20 μg/ml fibronectin. […] The expression of ATM and other DNA repair-related factors was assessed by Western blotting as described above.

[2] = system: human CDCs; format: cell-based
Protocol: CDCs were expanded in conventional conditions under 20% O2 as described above. Twice-passaged CDCs and ES cells were used in these Examples. Cells were seeded in 96-well plates coated with 20 μg/ml fibronectin. […] After 24 hours of culture, cells were fixed, permeabilized and stained with rabbit polyclonal antibody against γ-H2AX (phosphor 5139, Abeam Inc.). After being washed, the cells were stained with a PE-conjugated secondary antibody and 4,6-diamidino-2-phenylindole (DAPI). Quantification of cells positive for γ-H2AX foci was performed by fluorescence microscopy (×40 magnification). Briefly, at least 5 images were captured from each culture condition from randomly-selected fields using Q-imaging (RETIGA EXi FAST, Canada) with the same exposure time. Cells with γ-H2AX foci in the nuclei were counted by a single observer blinded to treatment regimen, and the percentage of cells with γ-H2AX foci in each culture condition was used for statistical analysis.

[3] = system: human cardiosphere-derived cells; test: Intracellular ROS levels (DCF fluorescence) after 24 hours short-term exposure; format: cell-based; settings: 20% O2, antioxidant A 100-1,000,000-fold dilution, B 0.1-1000 μM, catalase 0.1-1000 units/ml, H2O2 0.1-1000 μM
Protocol: To assay intracellular ROS levels (ROS levels), twice-passaged CDCs were seeded in 6- or 96-well plates coated with 20 μg/ml fibronectin, and continuously cultured under the abovementioned four different conditions. At about 90% confluence, cells were incubated with 10 μM 2′,7′-dichlorodihydrofluorescein diacetate (DCFH-DA) (Invitrogen) for 60 min to allow DCFH-DA to diffuse into cells. The DCF fluorescence intensity in cells cultured in 96-well plates is directly determined using SpectraMax® M5 (Molecular Devices Corp.) with an excitation wavelength of 495 nm and an emission wavelength of 520 nm. Cells cultured in 6-well plates were trypsin-treated and fixed. The DCF fluorescence intensity in cells was analyzed using a FACS Calibur flow cytometer with CellQuest software (BD Biosciences).
Twice-passaged cells were seeded in 6- or 96-well plates coated with 20 μg/ml fibronectin. […] After 24 hours of culture, the DCF fluorescence intensity in cells was measured using the same methods as disclosed above.
CDCs were initially maintained in traditional 5% CO2/20% O2 culture condition and then seeded into 96-well plates and cultured for 24 hours under experimental conditions. […] Dev. for six separate experiments using different twice-passaged CDCs. (a.u.: arbitrary units. * p<0.01, †p<0.05 vs. the baseline levels, represented by “0” on the x-axis). […]

Compound	expression levels of ATR, Rad50, Rad51, Chk-1, and Chk-2 [1]	percentage of CDCs with γ-H2AX foci (DNA damage), dose response [2]	ROS levels, dose response [3]
OO [Antioxidant H2O2, hydrogen peroxide]	increased	increased DNA damage dose-dependently	increased
catalase	slightly or obviously decreased	A similar result	decreased
